Source: patent publication US5304554A, “4-[(alkyl or dialkyl)amino]quinolines and their method of preparation” (Emory University, priority 1992, dated 1994)
Entries after “also recorded” stand apart in the source; their conditions may differ.

Columns and labels:
[1] = system: antimalarial and antiamoebic activity; details: Hahn et al.; cited from earlier work
HIV-1 (strain LAV) = assay: Anti-HIV-1 activity in human PBM cells infected with HIV-1 (strain LAV), reverse transcriptase readout; format: cell-based; details: Human immunodeficiency virus 1, PBMC, read-out: Median effective concentration (EC50) against HIV-1
Experimental: The median effective concentrations (EC50) of selected quinolines against HIV-1 were determined in human blood mononuclear (PBM) cells infected with HIV-1 (strain LAV) as described below. […] It appears that the presence of a heteraromatic substituent at position 2 of the quinoline enhances the anti-HIV-1 activity of the 4-[(alkyl and dialkyl)amino]quinoline derivative. The anti-HIV-1 activity appears to be diminished in compounds with large substituents attached to the 4-amino group.
The following procedure was used to determine the EC50 values for selected compounds.
A. Three-day-old phytohemagglutinin-stimulated PBM cells (10^6 cells/ml) from hepatitis B and HIV-1 seronegative healthy donors were infected with HIV-1 (strain LAV) at a concentration of about 100 times the 50% tissue culture infectious dose (TICD 50) per ml and cultured in the presence and absence of various concentrations of quinolines.
B. Approximately 45 minutes after infection, medium, with the compound to be tested (2 times the final concentration in medium) or without compound, was added to the flasks (5 ml; final volume 10 ml). AZT was used as a positive control.
C. The cells were exposed to HIV (about 2×10^5 dpm/ml, as determined by reverse transcriptase assay) and then placed in a CO2 incubator. HIV-1 (strain LAV) was obtained from the Center for Disease Control, Atlanta, Ga. The methods used for culturing the PBM cells, harvesting the virus and determining the reverse transcriptase activity were those described by McDougal et al. (J. Immun. Meth. 76, 171-183, 1985) and Spira et al. (J. Clin. Meth. 25, 97-99, 1987), except that fungizone was not included in the medium (see Schinazi, et al., Antimicrob. Agents Chemother. 32, 1784-1787 (1988)). The reverse transcriptase activity in the virus-infected control was about 2×10^5 dpm per ml. Blank and uninfected cell control values were about 300 and 1,000 dpm, respectively.
D. On day 6, the cells and media were transferred to a 15 ml tube and centrifuged at about 900 g for 10 minutes. Five ml of supernatant were removed and the virus concentrated by centrifugation at 40,000 rpm for 30 minutes (Beckman 70.1 Ti rotor). The solubilized virus pellet was processed for determination of the levels of reverse transcriptase. Results are expressed in dpm/ml of sampled supernatant.
The median effective (EC50) concentrations for derivatized quinolines, were determined by the median effect method (Antimicrob. Agents Chemother. 30: 491-498, 1986). Briefly, in the median effect method, the percent inhibition of virus, as determined from measurements of reverse transcriptase, is plotted versus the micromolar concentration of compound. The EC50 is the concentration of compound at which there is a 50% inhibition of viral replication.

[2] = system: Plasmid pBR322 superhelical DNA; details: reference value; cited from earlier work
[3] = Toxicity (growth) in uninfected human peripheral blood mononuclear (PBM) cells; format: cell-based; details: 6 days, trypan blue exclusion, read-out: IC50, growth of uninfected PBM cells
Experimental: The toxicity of 6a,6d,8a, and 8c were determined in […] PBM cells (3.8×10^5 cells/ml) cultured in the presence and absence of compounds under conditions similar to those used for the antiviral assay described above but without virus. The cells were counted after 6 days using a hemacytometer and the trypan blue exclusion method, as described by Schinazi et al., Antimicrobial Agents and Chemotherapy, 22(3), 499 (1982).
The effect of the compounds on the growth of uninfected human PBM cells in culture is used as an indicator of the toxicity of the test compound to the normal viability of cells. The IC50 is the concentration of compound which inhibits 50% of normal, uninfected, cell growth.

DNA = details: Hahn et al. 1966; cited from earlier work
[4] = infants and children, high dosages; cited from earlier work

Row | EC50 (HIV-1 (strain LAV)) | Compound | further results
1 | 1000 nM | CN(C)CCNc1cc(-c2cccs2)nc2ccccc12 [Quinoline 9a] | –
2 | 1000 nM | CN1CCN(c2cc(-c3cccnc3)nc3ccccc23)CC1 [Quinoline 6d] | CC50 at 144 h [3]: > 100 µM
3 | 900 nM | CN(C)CCNc1cc(-c2ccco2)nc2ccccc12 [Quinoline 8a] | CC50 at 144 h [3]: > 100 µM
4 | 1500 nM | CN(C)CCNc1cc(-c2cccnc2)nc2ccccc12 [Quinoline 6a] | CC50 at 144 h [3]: > 100 µM
5 | 1100 nM | CN(C)CCNc1cc(-c2ccccn2)nc2ccccc12 [Quinoline 5a] | –

More lines, now with the values behind:

Row | Compound | EC50 (HIV-1 (strain LAV)) | further results
6 | CCN(CC)CCCC(C)Nc1c2ccc(Cl)cc2nc2ccc(OC)cc12 (centres unmarked) [quinacrine, 6-chloro-9-[[4-(diethylamino)-1-methylbutyl]amino]-2-methoxyacridine] | – | Antimalarial and antiamoebic activity (in words) [1]: have antimalarial and antiamoebic activity
7 | CN1CCN(c2cc(-c3ccncc3)nc3ccccc23)CC1 [Quinoline 7c] | 68200 nM | –
8 | CCN(CCN(C)C)c1cc(-c2cccnc2)nc2ccccc12 [Quinoline 6b] | 24200 nM | –
9 | CCN(CCN(C)C)c1cc(-c2ccccn2)nc2ccccc12 [Quinoline 5b] | 13200 nM | –
10 | CC[n+]1c(-c2ccccc2)c2cc(N)ccc2c2ccc(N)cc21 [ethidium] | – | Unwinding angle [2]: 26
11 | CN1CCN(c2cc(-c3ccccn3)nc3ccccc23)CC1 [Quinoline 5d] | 5500 nM | –
12 | CCN(CCN(C)C)c1cc(-c2cccs2)nc2ccccc12 [Quinoline 9c] | 32400 nM | –
13 | CN1CCN(c2cc(-c3ccco3)nc3ccccc23)CC1 [Quinoline 8c] | 1000 nM | CC50 at 144 h [3]: > 100 µM
14 | CCN(CC)CCCC(C)Nc1ccnc2cc(Cl)ccc12 (centres unmarked) [chloroquine, 7-chloro-4-(4-diethylamino-1-methylbutylamino)quinoline] | – | Inhibition of nucleic acid biosynthesis (in words) (DNA): inhibits nucleic acid biosynthesis by forming a molecular complex with DNA; Antimalarial and antiamoebic activity (in words) [1]: have antimalarial and antiamoebic activity; Adverse effects (in words) [4]: Sudden deaths have been reported; also recorded: infants and children are extremely susceptible to adverse effects
